# Laboratory results published in paper PMC4639830, “Inhibition of DYRK1A and GSK3B induces human β-cell proliferation” (Nature Communications, 2015).
# How the values were obtained:
# Experiment in all cases: Kinase profiling
# Type in all cases: biochemical
# MET = target: T1, MET (Homo sapiens, UniProt P08581); conditions: Conc 1000 nM; read-out: Percent inhibition, MET
# T1 construct: purchased Ambit (KINOMEscan)
# Text: (§1) ; Fig. 5a; Supplementary Table 1). We focused on Dyrk1a because other kinases inhibited by aminopyrazine compounds were not highly expressed in β-cells and because Dyrk1a was known to inhibit the NFAT pathway that was previously implicated in β-cell proliferation. We used molecular modelling to dock the aminopyrazine compounds into the published structure of Dyrk1a (protein databank accession code 2vx3.pdb; Fig. 5b).
# CDK2/cyclinA = target: T2, CDK2/cyclinA (Homo sapiens, UniProt P24941); conditions: read-out: Percent inhibition, CDK2/cyclinA; for inhibition at 1 µM: Conc 1000 nM
# T2 construct: purchased Ambit KINOMEscan
# Text: as §1
# TYRO3 = target: T3, TYRO3 (Homo sapiens, UniProt Q06418); conditions: Conc 1000 nM; read-out: Percent inhibition, TYRO3
# T3 construct: purchased Ambit (KINOMEscan)
# Text: as §1
# EGFR = target: T4, EGFR (Homo sapiens, UniProt P00533); conditions: Conc 1000 nM; read-out: Percent inhibition, EGFR
# T4 construct: purchased Ambit KINOMEscan
# Text: as §1
# ALK = target: T5, ALK (Homo sapiens, UniProt Q9UM73); conditions: read-out: Percent inhibition, ALK; for inhibition at 1 µM: Conc 1000 nM
# T5 construct: purchased Ambit KINOMEscan
# Text: as §1
# PDK1 = target: T6, PDK1 (Homo sapiens, UniProt O15530); conditions: Conc 1000 nM; read-out: Percent inhibition, PDK1
# T6 construct: purchased Ambit (KINOMEscan)
# Text: as §1
# TRKA (NTRK1) = target: T7, TRKA (NTRK1) (Homo sapiens, UniProt P04629); conditions: read-out: Percent inhibition, TRKA (NTRK1); for inhibition at 1 µM: Conc 1000 nM
# T7 construct: purchased Ambit (KINOMEscan)
# Text: as §1
# MEK1 = target: T8, MEK1 (Homo sapiens, UniProt Q02750); conditions: Conc 1000 nM; read-out: Percent inhibition, MEK1
# T8 construct: purchased Ambit (KINOMEscan)
# Text: as §1
# AURORA-A = target: T9, AURORA-A (Homo sapiens, UniProt O14965); conditions: read-out: Percent inhibition, AURORA-A; for inhibition at 1 µM: Conc 1000 nM
# T9 construct: purchased Ambit KINOMEscan
# T9 sequence (O14965 1-403): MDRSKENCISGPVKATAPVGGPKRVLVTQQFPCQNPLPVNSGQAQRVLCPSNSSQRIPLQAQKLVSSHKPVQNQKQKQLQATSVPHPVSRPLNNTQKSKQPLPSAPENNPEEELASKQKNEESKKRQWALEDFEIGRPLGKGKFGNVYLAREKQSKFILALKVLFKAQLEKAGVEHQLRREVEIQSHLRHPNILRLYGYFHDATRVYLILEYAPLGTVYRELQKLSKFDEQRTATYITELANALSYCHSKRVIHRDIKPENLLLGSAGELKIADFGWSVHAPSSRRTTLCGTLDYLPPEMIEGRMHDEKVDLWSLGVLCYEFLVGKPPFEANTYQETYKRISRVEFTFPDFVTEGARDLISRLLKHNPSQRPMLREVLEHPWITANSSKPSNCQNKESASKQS
# Text: as §1
# PLK1 = target: T10, PLK1 (Homo sapiens, UniProt P53350); conditions: Conc 1000 nM; read-out: Percent inhibition, PLK1
# T10 construct: purchased Ambit (KINOMEscan)
# Text: as §1
# p70S6K1 = target: T11, p70S6K1 (Homo sapiens, UniProt P23443); conditions: Conc 1000 nM; read-out: Percent inhibition, p70S6K1
# T11 construct: purchased Ambit (KINOMEscan)
# Text: as §1
# KDR (VEGFR2, FLK1) = target: T12, KDR (VEGFR2, FLK1) (Homo sapiens, UniProt P35968); conditions: read-out: Percent inhibition, KDR (VEGFR2, FLK1); for inhibition at 1 µM: Conc 1000 nM
# T12 construct: purchased Ambit KINOMEscan
# Text: as §1
# PDGFRb = target: T13, PDGFRb (Homo sapiens, UniProt P09619); conditions: read-out: Percent inhibition, PDGFRb; for inhibition at 1 µM: Conc 1000 nM
# T13 construct: purchased Ambit (KINOMEscan)
# Text: as §1
# cRAF = target: T14, cRAF (Homo sapiens, UniProt P04049); conditions: Conc 1000 nM; read-out: Percent inhibition, cRAF
# T14 construct: purchased Ambit KINOMEscan
# Text: as §1
# ErbB4 (HER4) = target: T15, ErbB4 (HER4) (Homo sapiens, UniProt Q15303); conditions: Conc 1000 nM; read-out: Percent inhibition, ErbB4 (HER4)
# T15 construct: purchased Ambit KINOMEscan
# Text: as §1
# LCK = target: T16, LCK (Homo sapiens, UniProt P06239); conditions: Conc 1000 nM; read-out: Percent inhibition, LCK
# T16 construct: purchased Ambit (KINOMEscan)
# Text: as §1
# ZAP70 = target: T17, ZAP70 (Homo sapiens, UniProt P43403); conditions: read-out: Percent inhibition, ZAP70; for inhibition at 1 µM: Conc 1000 nM
# T17 construct: purchased Ambit (KINOMEscan)
# T17 sequence (P43403 1-619): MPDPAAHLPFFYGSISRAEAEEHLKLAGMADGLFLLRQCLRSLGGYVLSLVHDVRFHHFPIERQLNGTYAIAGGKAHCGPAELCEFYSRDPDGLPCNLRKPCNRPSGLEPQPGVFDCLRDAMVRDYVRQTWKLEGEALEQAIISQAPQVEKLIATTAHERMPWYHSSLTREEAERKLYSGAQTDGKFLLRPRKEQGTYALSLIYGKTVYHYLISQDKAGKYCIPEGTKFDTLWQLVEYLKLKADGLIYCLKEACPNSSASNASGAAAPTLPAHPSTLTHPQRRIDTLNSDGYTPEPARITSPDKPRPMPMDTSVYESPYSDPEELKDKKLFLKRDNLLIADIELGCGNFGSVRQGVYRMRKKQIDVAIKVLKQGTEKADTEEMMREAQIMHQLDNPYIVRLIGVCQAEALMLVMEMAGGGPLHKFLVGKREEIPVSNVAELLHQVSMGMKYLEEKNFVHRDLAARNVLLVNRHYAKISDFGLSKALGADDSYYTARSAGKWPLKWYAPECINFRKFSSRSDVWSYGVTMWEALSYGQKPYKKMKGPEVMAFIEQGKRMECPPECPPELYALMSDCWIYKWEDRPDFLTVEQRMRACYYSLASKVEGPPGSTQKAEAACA
# Text: as §1
# PIM-2 = target: T18, PIM-2 (Homo sapiens, UniProt Q9P1W9); conditions: Conc 1000 nM; read-out: Percent inhibition, PIM-2
# T18 construct: purchased Ambit (KINOMEscan)
# Text: as §1
# BTK = target: T19, BTK (Homo sapiens, UniProt Q06187); conditions: Conc 1000 nM; read-out: Percent inhibition, BTK
# T19 construct: purchased Ambit KINOMEscan
# Text: as §1
# AKT3 = target: T20, AKT3 (Homo sapiens, UniProt Q9Y243); conditions: Conc 1000 nM; read-out: Percent inhibition, AKT3
# T20 construct: purchased Ambit KINOMEscan
# Text: as §1
# T7 sequence (P04629 33-796): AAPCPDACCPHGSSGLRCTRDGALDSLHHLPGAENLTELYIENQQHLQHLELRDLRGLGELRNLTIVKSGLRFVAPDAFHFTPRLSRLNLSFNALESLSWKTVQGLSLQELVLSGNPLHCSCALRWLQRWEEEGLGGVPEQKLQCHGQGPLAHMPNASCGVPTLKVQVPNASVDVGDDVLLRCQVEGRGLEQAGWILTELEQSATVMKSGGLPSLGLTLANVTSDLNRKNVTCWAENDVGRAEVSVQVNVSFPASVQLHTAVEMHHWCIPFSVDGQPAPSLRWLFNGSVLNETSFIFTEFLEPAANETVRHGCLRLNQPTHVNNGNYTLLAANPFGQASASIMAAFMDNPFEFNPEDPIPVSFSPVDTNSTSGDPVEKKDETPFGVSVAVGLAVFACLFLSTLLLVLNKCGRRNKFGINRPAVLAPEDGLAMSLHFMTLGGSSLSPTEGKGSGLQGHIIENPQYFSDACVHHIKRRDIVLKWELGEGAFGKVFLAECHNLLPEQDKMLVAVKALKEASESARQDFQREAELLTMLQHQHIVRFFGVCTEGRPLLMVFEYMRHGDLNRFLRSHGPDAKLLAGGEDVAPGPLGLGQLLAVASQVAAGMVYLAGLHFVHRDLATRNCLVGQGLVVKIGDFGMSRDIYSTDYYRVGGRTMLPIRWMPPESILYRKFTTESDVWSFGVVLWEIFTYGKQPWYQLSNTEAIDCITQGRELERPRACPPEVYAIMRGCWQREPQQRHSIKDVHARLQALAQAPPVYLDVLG
# T13 sequence (P09619 33-1106): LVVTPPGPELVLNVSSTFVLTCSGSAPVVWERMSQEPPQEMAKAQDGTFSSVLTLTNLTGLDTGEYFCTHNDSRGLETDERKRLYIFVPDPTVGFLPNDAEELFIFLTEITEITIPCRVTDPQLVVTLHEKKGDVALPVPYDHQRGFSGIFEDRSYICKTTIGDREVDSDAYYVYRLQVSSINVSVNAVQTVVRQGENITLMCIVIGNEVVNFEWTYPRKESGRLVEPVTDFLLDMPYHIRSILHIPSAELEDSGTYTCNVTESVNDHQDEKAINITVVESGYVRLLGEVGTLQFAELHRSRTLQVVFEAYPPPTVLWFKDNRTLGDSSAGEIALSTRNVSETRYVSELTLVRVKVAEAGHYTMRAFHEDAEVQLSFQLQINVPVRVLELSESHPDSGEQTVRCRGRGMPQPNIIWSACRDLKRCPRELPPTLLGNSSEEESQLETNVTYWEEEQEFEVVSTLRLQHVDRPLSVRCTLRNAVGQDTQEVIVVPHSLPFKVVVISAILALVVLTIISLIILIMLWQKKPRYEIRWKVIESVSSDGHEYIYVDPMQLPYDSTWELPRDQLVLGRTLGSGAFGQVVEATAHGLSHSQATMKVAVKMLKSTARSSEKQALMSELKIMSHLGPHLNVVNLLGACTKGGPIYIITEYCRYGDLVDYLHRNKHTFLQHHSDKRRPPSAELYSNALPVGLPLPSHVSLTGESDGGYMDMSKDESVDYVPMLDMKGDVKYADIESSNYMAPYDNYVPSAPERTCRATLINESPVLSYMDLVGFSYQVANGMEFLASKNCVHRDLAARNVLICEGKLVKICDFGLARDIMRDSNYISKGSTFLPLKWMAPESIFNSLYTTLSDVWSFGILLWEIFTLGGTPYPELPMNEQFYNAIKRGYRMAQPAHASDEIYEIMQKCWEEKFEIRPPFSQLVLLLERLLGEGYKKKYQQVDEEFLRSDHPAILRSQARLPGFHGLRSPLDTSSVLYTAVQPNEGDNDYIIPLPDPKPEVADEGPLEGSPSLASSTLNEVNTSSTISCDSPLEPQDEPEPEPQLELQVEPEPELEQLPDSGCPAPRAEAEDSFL
# T12 sequence (P35968 20-1356): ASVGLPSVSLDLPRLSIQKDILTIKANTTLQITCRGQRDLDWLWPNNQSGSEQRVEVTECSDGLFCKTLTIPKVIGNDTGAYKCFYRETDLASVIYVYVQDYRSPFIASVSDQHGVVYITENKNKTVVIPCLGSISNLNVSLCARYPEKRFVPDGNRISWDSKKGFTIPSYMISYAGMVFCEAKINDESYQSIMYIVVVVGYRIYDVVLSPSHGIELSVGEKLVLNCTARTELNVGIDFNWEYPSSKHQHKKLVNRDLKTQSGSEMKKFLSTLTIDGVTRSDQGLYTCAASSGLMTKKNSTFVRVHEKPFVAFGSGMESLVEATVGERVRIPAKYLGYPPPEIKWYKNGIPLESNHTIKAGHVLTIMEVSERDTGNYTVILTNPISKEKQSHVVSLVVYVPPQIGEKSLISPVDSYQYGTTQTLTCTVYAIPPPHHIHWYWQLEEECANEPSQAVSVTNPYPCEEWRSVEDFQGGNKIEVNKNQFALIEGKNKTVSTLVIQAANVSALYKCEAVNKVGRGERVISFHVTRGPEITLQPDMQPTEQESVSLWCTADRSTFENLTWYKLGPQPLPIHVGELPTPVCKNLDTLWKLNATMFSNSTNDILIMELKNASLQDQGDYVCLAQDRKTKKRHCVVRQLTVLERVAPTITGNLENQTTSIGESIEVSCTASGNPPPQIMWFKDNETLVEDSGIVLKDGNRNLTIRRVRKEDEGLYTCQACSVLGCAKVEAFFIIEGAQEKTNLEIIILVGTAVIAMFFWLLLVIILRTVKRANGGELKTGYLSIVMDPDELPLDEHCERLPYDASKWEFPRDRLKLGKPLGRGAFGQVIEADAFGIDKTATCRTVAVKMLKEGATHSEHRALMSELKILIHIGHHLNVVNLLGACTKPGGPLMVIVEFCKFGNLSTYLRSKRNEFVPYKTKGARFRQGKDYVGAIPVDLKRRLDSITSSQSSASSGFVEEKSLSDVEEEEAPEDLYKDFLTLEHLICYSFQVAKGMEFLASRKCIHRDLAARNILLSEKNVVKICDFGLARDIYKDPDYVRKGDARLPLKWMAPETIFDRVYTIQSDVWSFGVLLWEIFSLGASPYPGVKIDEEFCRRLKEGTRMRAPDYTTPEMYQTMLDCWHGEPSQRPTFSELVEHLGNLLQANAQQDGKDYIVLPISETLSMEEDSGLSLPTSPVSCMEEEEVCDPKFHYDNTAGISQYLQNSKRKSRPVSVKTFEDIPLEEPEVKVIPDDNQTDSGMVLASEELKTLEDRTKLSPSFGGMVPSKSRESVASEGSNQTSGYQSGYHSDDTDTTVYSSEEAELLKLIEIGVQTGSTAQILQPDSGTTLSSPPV
# T5 sequence (Q9UM73 19-1620): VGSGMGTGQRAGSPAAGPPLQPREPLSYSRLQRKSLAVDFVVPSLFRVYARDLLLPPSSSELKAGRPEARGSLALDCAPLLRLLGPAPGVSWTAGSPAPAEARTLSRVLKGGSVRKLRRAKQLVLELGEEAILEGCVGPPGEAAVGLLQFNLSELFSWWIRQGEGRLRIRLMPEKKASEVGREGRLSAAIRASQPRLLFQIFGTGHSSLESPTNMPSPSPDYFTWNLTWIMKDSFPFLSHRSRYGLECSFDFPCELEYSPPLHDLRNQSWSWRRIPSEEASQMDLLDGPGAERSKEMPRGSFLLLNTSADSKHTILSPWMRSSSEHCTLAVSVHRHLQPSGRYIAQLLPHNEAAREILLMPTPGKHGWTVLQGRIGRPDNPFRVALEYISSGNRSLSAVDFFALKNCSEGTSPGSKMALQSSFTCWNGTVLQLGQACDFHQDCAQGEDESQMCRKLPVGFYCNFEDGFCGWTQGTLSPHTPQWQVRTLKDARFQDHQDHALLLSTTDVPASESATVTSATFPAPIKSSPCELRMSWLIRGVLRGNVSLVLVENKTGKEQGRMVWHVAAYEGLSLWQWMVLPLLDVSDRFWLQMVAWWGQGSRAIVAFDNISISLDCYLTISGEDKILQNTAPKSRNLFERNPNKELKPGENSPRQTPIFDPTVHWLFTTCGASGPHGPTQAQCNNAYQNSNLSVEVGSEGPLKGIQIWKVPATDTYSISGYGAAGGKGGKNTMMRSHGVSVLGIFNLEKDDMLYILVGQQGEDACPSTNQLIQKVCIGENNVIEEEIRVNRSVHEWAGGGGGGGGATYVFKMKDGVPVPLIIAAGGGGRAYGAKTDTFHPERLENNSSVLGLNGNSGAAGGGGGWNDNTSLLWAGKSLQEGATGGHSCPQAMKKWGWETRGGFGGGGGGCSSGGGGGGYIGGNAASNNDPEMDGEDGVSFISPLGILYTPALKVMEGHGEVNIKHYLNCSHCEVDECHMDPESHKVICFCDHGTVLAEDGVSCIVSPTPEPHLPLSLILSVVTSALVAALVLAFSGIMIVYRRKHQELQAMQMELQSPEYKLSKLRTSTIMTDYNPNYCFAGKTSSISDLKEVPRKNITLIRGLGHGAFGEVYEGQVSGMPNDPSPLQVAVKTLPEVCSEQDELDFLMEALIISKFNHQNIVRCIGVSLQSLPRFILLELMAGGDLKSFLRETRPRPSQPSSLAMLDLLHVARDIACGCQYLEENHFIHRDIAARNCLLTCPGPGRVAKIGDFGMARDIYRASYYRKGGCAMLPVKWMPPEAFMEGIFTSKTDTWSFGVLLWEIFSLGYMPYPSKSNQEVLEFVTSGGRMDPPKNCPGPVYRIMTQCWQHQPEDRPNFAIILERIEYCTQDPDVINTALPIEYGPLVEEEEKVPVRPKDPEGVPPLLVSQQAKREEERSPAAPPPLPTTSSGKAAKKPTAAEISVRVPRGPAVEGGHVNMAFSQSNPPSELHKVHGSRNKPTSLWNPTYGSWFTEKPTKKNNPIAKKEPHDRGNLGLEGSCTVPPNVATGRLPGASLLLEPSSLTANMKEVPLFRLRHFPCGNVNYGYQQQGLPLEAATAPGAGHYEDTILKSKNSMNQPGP
# T18 sequence (Q9P1W9 whole entry): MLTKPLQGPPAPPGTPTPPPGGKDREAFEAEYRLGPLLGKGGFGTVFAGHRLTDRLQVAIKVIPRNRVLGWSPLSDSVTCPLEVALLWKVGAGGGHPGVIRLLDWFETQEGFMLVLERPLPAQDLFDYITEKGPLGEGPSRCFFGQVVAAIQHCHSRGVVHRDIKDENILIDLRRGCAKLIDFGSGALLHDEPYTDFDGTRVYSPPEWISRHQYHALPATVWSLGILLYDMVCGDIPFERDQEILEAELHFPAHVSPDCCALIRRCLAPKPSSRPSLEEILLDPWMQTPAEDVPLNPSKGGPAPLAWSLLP
Structure (SMILES),inhibition at 1 µM (MET) [%],inhibition at 1 µM (CDK2/cyclinA) [%],inhibition at 1 µM (TYRO3) [%],inhibition at 1 µM (EGFR) [%],inhibition at 1 µM (ALK) [%],inhibition at 1 µM (PDK1) [%],inhibition at 1 µM (TRKA (NTRK1)) [%],inhibition at 1 µM (MEK1) [%],inhibition at 1 µM (AURORA-A) [%],inhibition at 1 µM (PLK1) [%],inhibition at 1 µM (p70S6K1) [%],"inhibition at 1 µM (KDR (VEGFR2, FLK1)) [%]",inhibition at 1 µM (PDGFRb) [%],inhibition at 1 µM (cRAF) [%],inhibition at 1 µM (ErbB4 (HER4)) [%],inhibition at 1 µM (LCK) [%],inhibition at 1 µM (ZAP70) [%],inhibition at 1 µM (PIM-2) [%],inhibition at 1 µM (BTK) [%],inhibition at 1 µM (AKT3) [%],also measured
CC(C)Oc1ccc(F)c(-c2cnc(N)c(C(=O)Nc3cnccc3N3CCC[C@@H](C(=O)O)C3)n2)c1 [GNF4877],63,95,46,44,96,45,80,17,84,22,75,101,94,18,54,43,94,31,42,25,"inhibition at 0.2 µM (CDK2/cyclinA; Conc 200 nM): 67%; inhibition at 0.2 µM (ALK; Conc 200 nM): 35%; inhibition at 0.2 µM (TRKA (NTRK1); Conc 200 nM): 19%; inhibition at 0.2 µM (AURORA-A; Conc 200 nM): 0%; inhibition at 0.2 µM (KDR (VEGFR2, FLK1); Conc 200 nM): 6%; inhibition at 0.2 µM (PDGFRb; Conc 200 nM): 0%; inhibition at 0.2 µM (ZAP70; Conc 200 nM): 0%"
Nc1ncc(-c2ccccc2)nc1C(=O)Nc1cnccc1N1CCC(C(=O)O)CC1 [GNF7156],47,90,52,71,71,43,92,50,95,85,50,102,94,17,36,31,70,60,83,7,
